Measured values published in PubChem BioAssay AID226 (DTP/NCI, 2004).
“And” between values parts separate entries of the source, which are not always exact repeats. Equal entries are not always repeated. Toxic doses and inconclusive results are not listed. How the source made its calls: active means survival T/C of 150% or more; inactive means T/C below 125% in these data.

Test system: B6C3F1 mice, intracerebral ependymoblastoma, median survival T/C
Assay: NCI In Vivo Anticancer Drug Screen. Data for tumor model Ependymoblastoma (intracerebral) in B6C3F1 mice
Details: endpoint: median survival time, higher = longer survival
Description: The antitumor activity of compounds was measured in mice bearing transplantable tumors. Survival or tumor size were measured and the results are expressed as the measurement made in the treated group (T) divided by the measurement made in the vehicle treated control group (C). The tumor model used in this assay is Ependymoblastoma (intracerebral) in B6C3F1 mice

[1] = dose: 4.0 mg/kg/injection, schedule: Q01DX005 (ip), vehicle: saline with Tween-80
[2] = dose: 8.0 mg/kg/injection, schedule: Q01DX005 (ip), vehicle: saline with Tween-80
[3] = dose: 16.0 mg/kg/injection, schedule: Q01DX005 (ip), vehicle: saline with Tween-80
[4] = dose: 0.5 mg/kg/injection, schedule: Q01DX005 (ip), vehicle: water
[5] = dose: 1.0 mg/kg/injection, schedule: Q01DX005 (ip), vehicle: water
[6] = dose: 2.0 mg/kg/injection, schedule: Q01DX005 (ip), vehicle: water
[7] = dose: 4.0 mg/kg/injection, schedule: Q01DX005 (ip), vehicle: water

Measured: T/C

O=NN(CCCl)C(=O)NC1CCC(=O)NC1=O (centres undefined)
inactive: dose: 0.5 mg/kg/injection, schedule: Q01DX005 (ip), vehicle: Klucel (hydroxypropylcellulose) (HPC) 91 % of control | dose: 0.5 mg/kg/injection, schedule: Q01DX005 (ip), vehicle: saline with Tween-80 109 % of control | dose: 1.0 mg/kg/injection, schedule: Q01DX005 (ip), vehicle: Klucel (hydroxypropylcellulose) (HPC) 114 % of control | dose: 1.0 mg/kg/injection, schedule: Q01DX005 (ip), vehicle: suspension in saline 124 % of control | dose: 5.0 mg/kg/injection, schedule: Q01DX001 (ip), vehicle: DMSO 112 % of control | [3] 114 % of control | dose: 20.0 mg/kg/injection, schedule: Q07DX003 (ip), vehicle: saline 99 % of control | dose: 32.0 mg/kg/injection, schedule: Q01DX001 (ip), vehicle: suspension in saline 120 % of control | dose: 33.3 mg/kg/injection, schedule: Q01DX001 (ip), vehicle: Klucel (hydroxypropylcellulose) (HPC) 90 % of control
active: dose: 1.0 mg/kg/injection, schedule: Q01DX009 (ip), vehicle: saline with Tween-80 241 % of control | dose: 2.0 mg/kg/injection, schedule: Q01DX005 (ip), vehicle: saline with Tween-80 238 % of control | dose: 2.0 mg/kg/injection, schedule: Q01DX009 (ip), vehicle: saline with Tween-80 241 % of control | dose: 2.59 mg/kg/injection, schedule: Q01DX005 (ip), vehicle: Klucel (hydroxypropylcellulose) (HPC) 309 % of control | dose: 4.0 mg/kg/injection, schedule: Q01DX001 (ip), vehicle: saline + alcohol 154 % of control | dose: 4.0 mg/kg/injection, schedule: Q01DX005 (ip), vehicle: Klucel (hydroxypropylcellulose) (HPC) 207 % of control | [1] 396 % of control | dose: 4.0 mg/kg/injection, schedule: Q01DX005 (ip), vehicle: suspension in saline 179 % of control and 236 % of control and 260 % of control | dose: 4.32 mg/kg/injection, schedule: Q01DX005 (ip), vehicle: Klucel (hydroxypropylcellulose) (HPC) 357 % of control | dose: 6.0 mg/kg/injection, schedule: Q01DX005 (ip), vehicle: suspension in saline 262 % of control and 267 % of control | dose: 7.2 mg/kg/injection, schedule: Q01DX001 (ip), vehicle: Klucel (hydroxypropylcellulose) (HPC) 187 % of control | dose: 7.2 mg/kg/injection, schedule: Q01DX005 (ip), vehicle: Klucel (hydroxypropylcellulose) (HPC) 357 % of control | dose: 8.0 mg/kg/injection, schedule: Q01DX001 (ip), vehicle: saline + alcohol 229 % of control | dose: 8.0 mg/kg/injection, schedule: Q01DX005 (ip), vehicle: Klucel (hydroxypropylcellulose) (HPC) 274 % of control | [2] 172 % of control | dose: 8.0 mg/kg/injection, schedule: Q01DX005 (ip), vehicle: suspension in saline 205 % of control | dose: 8.3 mg/kg/injection, schedule: Q01DX001 (ip), vehicle: DMSO 226 % of control | dose: 10.0 mg/kg/injection, schedule: Q07DX003 (ip), vehicle: saline 175 % of control | dose: 10.0 mg/kg/injection, schedule: Q07DX003 (ip), vehicle: suspension in saline 252 % of control | dose: 12.0 mg/kg/injection, schedule: Q01DX001 (ip), vehicle: Klucel (hydroxypropylcellulose) (HPC) 363 % of control | dose: 12.0 mg/kg/injection, schedule: Q01DX005 (ip), vehicle: Klucel (hydroxypropylcellulose) (HPC) 357 % of control | dose: 13.8 mg/kg/injection, schedule: Q01DX001 (ip), vehicle: DMSO 367 % of control | dose: 16.0 mg/kg/injection, schedule: Q01DX001 (ip), vehicle: saline + alcohol 324 % of control | dose: 20.0 mg/kg/injection, schedule: Q01DX001 (ip), vehicle: Klucel (hydroxypropylcellulose) (HPC) 363 % of control | dose: 20.0 mg/kg/injection, schedule: Q07DX003 (ip), vehicle: suspension in saline 252 % of control | dose: 23.0 mg/kg/injection, schedule: Q01DX001 (ip), vehicle: DMSO 367 % of control | dose: 32.0 mg/kg/injection, schedule: Q01DX001 (ip), vehicle: saline + alcohol 324 % of control | dose: 38.4 mg/kg/injection, schedule: Q01DX001 (ip), vehicle: DMSO 366 % of control

CN=S(=O)(OCCCCCOS(=O)(=NC)c1ccccc1)c1ccccc1 (centres undefined)
inactive: dose: 6.25 mg/kg/injection, schedule: Q01DX005 (ip), vehicle: saline with Tween-80 110 % of control | dose: 12.5 mg/kg/injection, schedule: Q01DX005 (ip), vehicle: saline with Tween-80 100 % of control | dose: 25.0 mg/kg/injection, schedule: Q01DX005 (ip), vehicle: saline with Tween-80 95 % of control and 106 % of control | dose: 50.0 mg/kg/injection, schedule: Q01DX005 (ip), vehicle: saline with Tween-80 111 % of control and 112 % of control | dose: 100.0 mg/kg/injection, schedule: Q01DX005 (ip), vehicle: saline with Tween-80 101 % of control and 123 % of control

OC(C1CO1)C(O)C1CO1 (centres undefined)
inactive: dose: 0.25 mg/kg/injection, schedule: Q01DX005 (ip), vehicle: saline 112 % of control | [4] 115 % of control | dose: 1.0 mg/kg/injection, schedule: Q01DX001 (ip), vehicle: saline 94 % of control and 121 % of control | [5] 112 % of control | dose: 1.0 mg/kg/injection, schedule: Q#A X002 (ip), vehicle: water 105 % of control | dose: 2.0 mg/kg/injection, schedule: Q01DX001 (ip), vehicle: saline 113 % of control | dose: 2.0 mg/kg/injection, schedule: Q01DX001 (ip), vehicle: water 105 % of control and 110 % of control and 118 % of control | [6] 124 % of control | dose: 2.0 mg/kg/injection, schedule: Q#A X002 (ip), vehicle: water 112 % of control | dose: 4.0 mg/kg/injection, schedule: Q01DX001 (ip), vehicle: saline 113 % of control | dose: 4.0 mg/kg/injection, schedule: Q01DX001 (ip), vehicle: water 116 % of control and 117 % of control | dose: 8.0 mg/kg/injection, schedule: Q01DX001 (ip), vehicle: saline 113 % of control
active: [7] 181 % of control | dose: 8.0 mg/kg/injection, schedule: Q01DX001 (ip), vehicle: water 151 % of control | dose: 8.0 mg/kg/injection, schedule: Q#A X002 (ip), vehicle: water 175 % of control | dose: 16.0 mg/kg/injection, schedule: Q01DX001 (ip), vehicle: saline 150 % of control and 166 % of control | dose: 16.0 mg/kg/injection, schedule: Q01DX001 (ip), vehicle: water 175 % of control

Nc1nc(=S)c2ncn(C3CC(O)C(CO)O3)c2[nH]1 (centres undefined)
inactive: [1] 93 % of control and 96 % of control | [2] 103 % of control | [3] 92 % of control | dose: 32.0 mg/kg/injection, schedule: Q01DX005 (ip), vehicle: saline with Tween-80 91 % of control and 102 % of control | dose: 64.0 mg/kg/injection, schedule: Q01DX005 (ip), vehicle: saline with Tween-80 100 % of control and 90 % of control

O=NN(CCCl)C(=O)NC1CCN(Cc2ccccc2)CC1
active: dose: 50.0 mg/kg/injection, schedule: Q01DX001 (ip), vehicle: water 160 % of control | dose: 100.0 mg/kg/injection, schedule: Q01DX001 (ip), vehicle: water 242 % of control
inactive: dose: 12.5 mg/kg/injection, schedule: Q01DX001 (ip), vehicle: water 124 % of control

COc1ccc2c(c1OC(C)=O)-c1cc(OC(C)=O)cc3c1C(C2)N(C(=O)CN(CCCl)CCCl)CC3 (centres undefined)
inactive: dose: 12.5 mg/kg/injection, schedule: Q01DX005 (ip), vehicle: DMSO 108 % of control

CCOC(OCC)C(=O)OCC(=O)[C@]1(O)Cc2c(O)c3c(c(O)c2[C@@H](OC2CC(N)C(O)C(C)O2)C1)C(=O)c1c(OC)cccc1C3=O (some centres undefined)
inactive: dose: 0.12 mg/kg/injection, schedule: Q01DX005 (ip), vehicle: water 103 % of control | dose: 0.25 mg/kg/injection, schedule: Q01DX005 (ip), vehicle: water 102 % of control and 113 % of control | [4] 101 % of control and 105 % of control | [5] 98 % of control and 109 % of control | [6] 101 % of control and 103 % of control | [7] 109 % of control
